One experiment concerns isolated rabbit aorta. The experiment is described as follows: isolated rabbit aorta: contraction of aorta rings depolarized with potassium chloride after pretreatment with the test substance. Conditions: Oryctolagus cuniculus, concentration of 10^-6 M, KCl-depolarized aorta rings. The source says: Their calcium antagonistic or calcium agonistic action can be shown using the model of the isolated rabbit aorta. This entails aorta rings being depolarized with potassium chloride, whereupon they contract. Pretreatment with the test substance is followed by a diminution in contraction in the case of the compounds acting as calcium antagonists, but by an intensification of contraction in the case of compounds acting as calcium agonists. For example, the compound from Example 2 at a concentration of 10^-6 M results in a 32% diminution in contraction. The compound from Example 3 at a concentration of 10^-6 M results in a 93% intensification of contraction.

The next experiment has as its target calcium channels. The experiment in a line: displacement of tritium-labeled nitrendipine from membrane preparations containing isolated calcium channels. The class given is binding. Here is the method:
Their action on the calcium channels can be shown using the biochemical test model of the displacement of tritium-labeled nitrendipine. In this test, membrane preparations which contain isolated calcium channels are loaded with the labeled substance. After incubation with the test substance, the radioactivity released and the radioactivity remaining on the membrane are determined. The IC50 values shown by the compounds of the formula I, according to the invention, in this model are from 10^-6 molar to 10^-10 molar.

Where a name gives a salt, the structure may show the parent alone.

As to `COc1cc(CCN2CCN(CC#CCOc3ccccc3[C@@]3(C(C)C)Sc4ccccc4N(C)C3=O)CC2)cc(OC)c1OC` [Example 2, (R)-2-Isopropyl-4-methyl-2-[2-[4-[4-(3,4,5-trimethoxyphenethyl)-1-piperazinyl]-2-butyn-1 yloxy]phenyl]-2H-1,4-benzothiazin-3(4H)-one dihydrochloride], the inhibition at 1 µM with isolated rabbit aorta (calcium antagonistic action, read-out: diminution in contraction) is 32%. Besides, on calcium channels, the half-inhibitory concentration (IC50) worked out at 0.12 nM.

Regarding `COc1cc(CCN2CCN(C/C=C\COc3ccccc3[C@@]3(C(C)C)Sc4ccccc4N(C)C3=O)CC2)cc(OC)c1OC` [Example 3, (R)-2-isopropyl-4-methyl-2-[2-[4-[4-(3,4,5-trimethoxyphenethyl)-1-piperazinyl]-2-cis-buten-1-yloxy]phenyl]-2H-1,4-benzothiazin-3(4H)-one dihydrochloride], the activation at 1 µM with isolated rabbit aorta (calcium agonistic action, read-out: intensification of contraction) amounted to 93%.

By IC50 is commonly meant the concentration at which inhibition is half-maximal.
